Patent publication US12201619B2, “Compounds and methods for use in the treatment of microglia-mediated disorders” (NSC Therapeutics GmbH, priority 2018, dated 2025)
Substitutions are numbered along the chain they refer to. Entries after “also recorded” stand apart in the source; their conditions may differ.

Key:
[1] = dry storage conditions; cited from earlier work
human M1 mAChR [2] = biological target: T1, human M1 mAChR (Homo sapiens, UniProt P11229); experiment: Phosphoinositide (PI) hydrolysis in CHOM1 cells; format: cell-based; parameters: expressed in transfected cells; host or cells: CHO (Chinese Hamster Ovary) cells, CHOM1, kept under G418; conditions: for Emax at 1000 µM: read-out: PI hydrolysis maximal response relative to CCh
T1 sequence (P11229 1-460): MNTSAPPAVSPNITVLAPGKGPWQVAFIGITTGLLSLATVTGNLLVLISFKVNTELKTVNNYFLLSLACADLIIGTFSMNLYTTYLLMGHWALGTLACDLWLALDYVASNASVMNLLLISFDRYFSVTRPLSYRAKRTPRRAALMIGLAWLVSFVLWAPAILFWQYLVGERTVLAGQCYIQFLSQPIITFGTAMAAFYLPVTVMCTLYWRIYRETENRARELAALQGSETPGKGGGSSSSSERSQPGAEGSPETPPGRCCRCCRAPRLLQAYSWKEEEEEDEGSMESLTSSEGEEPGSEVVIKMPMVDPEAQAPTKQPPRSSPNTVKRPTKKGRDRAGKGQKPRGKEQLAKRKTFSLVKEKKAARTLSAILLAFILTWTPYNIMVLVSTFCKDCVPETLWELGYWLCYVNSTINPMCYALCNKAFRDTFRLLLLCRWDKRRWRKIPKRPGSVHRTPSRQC
Method: (§1) Rat pheochromocytoma cells (PC12) transfected with rat M1 muscarinic receptor (PC12M1) or CHOM1 cells were seeded in 24-well plates at a density of 4-8×10^5 cells/well. A day later, a fresh growth medium containing 1 μCi/ml [^3H]inositol (myo-[2-^3H(N)] 22 Ci/mmol; purchased from NEN, Boston, MA) was added for 18-24 h (overnight). Then, the medium was removed and the cells were washed twice followed by pre-incubation (10 min) with serum-free medium containing 20 mM Hepes pH 7.4 and 10 mM LiCl. […] Basal activity was determined in cells that were incubated in parallel without the tested compounds. Termination of the assay was carried out by aspirating the media and adding 0.5 ml 2% trichloroacetic acid (TCA) followed by agitating the cells in the cold for 30 min. The TCA extracts were transferred to anion-exchange columns, washed five times with 5 mM inositol, once with 5 ml 5 mM Na2B4O7 in 60 mM formic acid, and the total IPs were eluted with 3 ml 1 M NH4COOH in 0.1 M formic acid. The effluent was collected into scintillation vials and the radioactivity was measured using liquid scintillation counter, 1214 Rackbeta LKB Wallac.

human M1 mAChR [3] = biological target: T1, human M1 mAChR; experiment: cell-based; conditions: for calcium mobilization response relative to CCh: CHOM1 cells, 50 μM compound
Method: Cells were routinely cultured in Dulbecco's Modified eagle medium (Gibco, UK) supplemented with 10% fetal bovine serum (FBS), 1×MEM non-essential amino-acid, […] Glutamine, 100μ/ml Penicillin, 0.1 mg/ml Streptomycin, 25 μg/ml Amphotericin B and 100 μg/ml G418 (Biological industries, Israel). Cells were kept in a humidified atmosphere at 37° C. in 5% CO2 and were passaged twice weekly by 2.5 mg/ml trypsin-EDTA (0.02%) solution (Biological industries, Israel) and re-suspended in fresh media.
Calcium fluorescence measurements were performed using a NOVOstar plate reader with an injector and a pipetting system (BMG Labtech, Ortenberg, Germany). At the day before the experiment Chinese Hamster Ovary (CHO) cells expressing human M1 mAChR subtypes (CHOM1) were harvested and rinsed with culture medium (see section “cell culture”, supra) without Phenol red and evenly plated into black-wall clear optical bottom 96-well plate (Nunc, Rochester NY, USA) at a density of 40,000 cells/well. Growth medium was removed and 80 μl of loading buffer, containing 2.5 mM probenecid, was carefully added (loading buffer prepared according to FLUO-4 NW calcium assay kit manual). The cell plate was incubated at 37° C. for 30 minutes; then at room temperature for an additional 30 minutes. EGTA (10 μl of 50 mM dissolved in HBSS) was added automatically to each well using the NOVOstar injector system followed by shaking of 1 minute (1 mm width, 600 rpm) and then incubated for another 10 minutes. HBSS alone or test compounds dissolved in HBSS were then added (10 μl) sequentially into separate wells using the NOVOstar robotic pipettor system. Fluorescence intensity was measured at 0.5 second intervals, for 30 second for each well, using an excitation wavelength of 485 nm (bandwidth 10 nm) and emission of 520 nm (bandwidth 10 nm), cut-off 515 nm. All assays were carried out in triplicates in three independent experiments. Competition curves and EC50 values were derived using the GraphPad Prism software program, version 3.0.

AD patients = conditions: cited from earlier work
M1 receptor = biological target: T2, M1 receptor (Homo sapiens, UniProt P11229); conditions: in vitro; cited from earlier work
T2 sequence (P11229 1-460): T1 sequence (P11229 1-460)

[4] = tested on: human blood-derived macrophages; experiment: Cell viability (PrestoBlue) of blood-derived human macrophages; format: cell-based; conditions: for cell viability in regards to medium control: 0-24 h, 1-2000 μM for NSC001 and AF102B; for persistence of the cell viability effect: after 24 hours of treatment
Method: Human blood-derived macrophages were isolated from buffy coat via standard protocols (Monocyte isolation Kit, 130091153, Miltenyi Biotec GmbH, Germany) and differentiated for 9 days in M-CSF medium (Ser. No. 12/065,074, Thermo Fisher, Switzerland,) supplemented with 125 ng/ml human GM-CSF (130093864, Miltenyi Biotec GmbH, Germany) to induce M1 macrophage differentiation. Upon differentiation, cells were harvested and re-seeded at 1 Mio cells per 24-well. […] Cell viability was detected by absorbance measurements utilizing the PrestoBlue colorimetric assay (PrestoBlue Cell Viability Reagent, A13261, Thermo Fisher, Switzerland). Cell viability was assessed directly after compound application at 0 h and after 1 h, 3 h and 24 h.

[5] = tested on: TREM2 (sTREM2, tTREM2) in primary microglia; experiment: Soluble and total TREM2 levels (ELISA) in primary microglia cultures; format: cell-based, mouse; conditions: for sTREM2 levels in medium: normalized to PMA 1 μM
Method: Primary microglia were isolated from C57BL6 pups (P4-6). Mouse brains were prepared by removing the cerebellum and the meninges. Brain tissue was dissected and single cell suspension was sorted via CD11b Microbeads (Milteny Biotec) to obtain primary microglia. Cells were plated at 4×10^5 cell/ml in 24 well plates and cultured for 24 hours in DMEM supplemented with 10% FBS and 1% Penicillin/Streptomycin.
Mouse primary microglia were prepared from mice postnatal day 4-6 according to standard protocols (Neuronal Tissue Dissociation Kit (P), 130-092-628 and CD11b Microbeads, 130-093-634; Miltenyi Biotec 5 GmbH, Germany) and seeded in 24-well plates at a density of 4×10^5 cells/well. After one day, cell medium was removed and cells were washed once with PBS. Subsequently, cell were treated with compound NSC001 (0-2000 μM) in FBS-free DMEM for 1 or 24 hours. Termination of the assay was carried out by collecting the media and concomitant concentration via centrifugal filter units (Amicon, Z648027-24EA, Sigma 10 Aldrich, Ireland). Cell lysis was performed by adding RIPA lysis buffer (RIPA buffer, R0278, Sigma-Aldrich Co LLC, USA) followed by agitating the cells at 4° C. for 30 min. Primary microglia cell lysates and concentrated cell medium were analyzed for soluble TREM2 (sTREM2; FIG. 3A,B) and total TREM2 (tTREM2; FIG. 3C,D) levels by ELISA (CSBEL024405MO, Cusabio Life Science, China).

3×Tg-AD mice = conditions: cited from earlier work
[6] = biological target: T3, rat M1 muscarinic receptor (Rattus norvegicus, UniProt P08482); experiment: Phosphoinositide (PI) hydrolysis in PC12M1 cells; format: cell-based
T3 construct: expressed in transfected cells; host or cells: PC12 rat pheochromocytoma cells (PC12M1)
T3 sequence (P08482 1-460): T1 sequence (P11229 1-460) with A5V, T254S, P309S, R320K, A337G, I413V
Method: as §1

[7] = 24 hours treatment, hydrochloride
[8] = 24 hours treatment, listed as AF267B

In the case of `CCC1SC2(CCN(C)CC2)NC1=O` (stereo not shown) [Form II], the “stability of the crystalline form” value [1] is listed as “highly stable under dry storage conditions for at least two years”.

For `C[C@@H]1O[C@@]2(CS1)CN1CCC2CC1.Cl` (racemic) [AF102B, cis-2-Methylspiro[1,3-oxathiolane-5,3′-quinuclidine] hydrochloride, reference compound], the Emax at 1000 µM (human M1 mAChR [2]) was 43%, the EC50 (human M1 mAChR [3]) was 1680 ± 330 nM and the “calcium mobilization response relative to CCh” value (human M1 mAChR [3]) was 101%. The “levels of Aβ in the CSF” value (AD patients) was “significantly decreased”, the Aβ levels (M1 receptor) was “decrease” and the Aβ-induced neurotoxicity (M1 receptor) was “block”. For the same compound, the tau hyperphosphorylation (M1 receptor) was “decrease”, the αAPPs (M1 receptor) was “elevate” and the “cell viability in regards to medium control” value (“cell viability in regards” below) ([4]; hydrochloride) was “increased; also recorded: increase in viability”. For the same compound, the “persistence of the cell viability effect” value [4] was “persisted”, the “sTREM2 levels in medium” value [5, 7] was “capable of inducing sTREM2 levels; also recorded: significantly enhances; also recorded: significantly increases” and the “cellular tTREM2 levels” value [5, 7] was “not affected; also recorded: unaffected; also recorded: unaltered”. The “concentration at which the compound is active” value ([5]; features (i) to (iii): sTREM2 secretion, calcium mobilization and/or PI hydrolysis) was 10 to 100 µM.

`CC[C@@H]1SC2(CCN(C)CC2)NC1=O` [NSC001, (S)-2-ethyl-8-methyl-1-thia-4,8-diaza-spiro[4.5]decan-3-one] gave an EC50 (human M1 mAChR [2]; CHOM1 cells) of 19000 nM, an Emax at 1000 µM (human M1 mAChR [2]) of 63 ± 1% and an EC50 (human M1 mAChR [3]) of 1840 ± 390 nM. For the same compound, the “calcium mobilization response relative to CCh” value (human M1 mAChR [3]) was 113%, the spatial memory (3×Tg-AD mice) was “improve spatial memory” and the “Aβ and tau pathologies” value (3×Tg-AD mice; hippocampus and cortex) was “reduced”. The “PI hydrolysis / M1 mAChR activation” value [6] was “efficacious; also recorded: efficiently induces PI hydrolysis”, the Aβ levels (M1 receptor) was “decrease” and the Aβ-induced neurotoxicity (M1 receptor) was “block”. For the same compound, the tau hyperphosphorylation (M1 receptor) was “decrease”, the αAPPs (M1 receptor) was “increase” and the “cell viability in regards” value [4] was “increased; also recorded: increase in viability”. The “persistence of the cell viability effect” value [4] was “persisted”, the “cellular tTREM2 levels” value ([5]; 1 hour treatment) was “remained constant; also recorded: no effect” and the “sTREM2 levels in medium” value ([5]; 1 hour treatment) was “no alteration detected; also recorded: no effect”. The “concentration able to increase sTREM2 levels comparable to PMA” value ([5]; 24 h, PMA 1 μM) was 1 µM, the “further increase in sTREM2 exceeding the levels upon PMA treatment (1 μM)” value ([5]; 24 h, higher concentrations 100-2000 μM) was “not observed” and the “cellular tTREM2 levels” value ([5]; 24 hours treatment) was “remain constant”. For the same compound, the “sTREM2 levels in medium” value ([5]; 24 hours treatment) was “significant increase”, the “sTREM2 levels in medium” value [5, 8] was “significantly increases” and the “cellular tTREM2 levels” value [5, 8] was “unaltered”. The “cellular tTREM2 levels” value ([5]; 24 hours treatment, listed as NSC0001) was “not affected” and the “concentration at which the activity of features (i) to (iii) is displayed” value ([5]; sTREM2 secretion, calcium mobilization and/or PI hydrolysis) was 1 to 5 µM.

In the case of `CCO` [Ethanol], the “cell viability in regards” value [4] is reported as “reduced cell viability; also recorded: rapidly decreases cell viability”.

In the case of `CCCCCCCCCCCCCC(=O)O[C@@H]1[C@@H](C)[C@@]2(O)[C@@H](C=C(CO)C[C@]3(O)C(=O)C(C)=C[C@@H]23)[C@@H]2C(C)(C)[C@]12OC(C)=O` [PMA, Phorbol myristate acetate], the “cell viability in regards” value [4] is reported as “increased” and the “persistence of the cell viability effect” value [4] is reported as “reversed to baseline”.
